From patent US9259404B2 (NESTEC S.A., priority 2012, dated 2016)
“Also recorded” adds a separate entry of the source.

Assays:
[1] = background statement; cited from earlier work
Nrf2 = Nrf2 reporter assay (AREc32 cell line, luciferase under control of the ARE); format: cell-based; conditions: AREc32 cells, 24 h, dose range 0 to 200 μM (FIG. 3)
Method: Activation of Nrf2 was measured using an Nrf2 reporter assay. This assay is based on the AREc32 cell line, from CRX biosciences (Dundee, Scotland), a stably transfected MCF7 (breast adenocarcinoma) cell line that contains a luciferase gene construct under the control of the ARE. Luciferase is an enzyme which digests luciferin and produces […]. Anti-oxidative molecules such as Tert-butylhydroquinone (TBHQ) induce luciferase transcription via the activation of Nrf2 that binds to ARE. Luciferase activity is determined using a luciferase kit form Promega (Madison, Wis.). The luciferase activity is proportional to the activation of Nrf2. […] The luciferase activity and the cell viability (ATP measurements) were determined using the Luciferase and Cell Titer-Glo kits from Promega. For each run the luciferase activities, measured in Relative Light Units (RLU), of all the wells were normalized with the mean of the luciferase activity of the cells only of all the plates. Among all the samples tested the normalization procedure was found not to affect the data and this observation permits the comparison of samples measured in different runs. For each sample the Nrf2 activation was calculated as follows: […] […] The luciferase content per sample allows a semi quantification of the Nrf2 activation by reflecting the amount of the Nrf2 activating molecule. […]

AREc32 cells = test: Cell viability of AREc32 cells (ATP quantification, Cell Titer-Glo); format: cell-based; conditions: 24 h
Method: The cell viability, measured by ATP quantification, is expressed as relative percentages of control (untreated) cells. The results are expressed as means of technical triplicates±SD and are representative of four independent experiments.
To determine the Nrf2 activation the samples were tested on AREC32 cells (seeded in 96 well plates) using 10 independent dilutions (1/2, 1/4, 1/6, 1/10, 1/15, 1/20, 1/25, 1/30, 1/40 and 1/50) and incubated for 24 hours at 37° C. in a 5% CO2/air incubator. The luciferase activity and the cell viability (ATP measurements) were determined using the Luciferase and Cell Titer-Glo kits from Promega.
The cell viability was also measured using a cell Titer-Glo kit (ATP quantification).

[2] = system: neuron astrocyte co-cultures; test: Neuron-astrocyte co-culture, oxidative stress induced by hydrogen peroxide, MTT assay; format: cell-based, mouse; conditions: 48 hours pre-treatment, 100 μM hydrogen peroxide 4 hours
Source text: The beneficial effect of compounds on cell survival is classically investigated by challenging the cell cultures with neurotoxic insults and measuring the resulting oxidative stress and excitotoxicity over a limited period of time (Aksenova et al., Current Neurovascular Research, 2, 73-89 (2005)). […] The model consists of primary neurons plated on glass coverslips that face astrocytes seeded on the bottom of a culture dish. The two cellular compartments are separated by paraffin beads, but released compounds (e.g., energy substrates and glutathione precursors) can freely diffuse from one compartment to the other through the culture medium. Primary cultures of mouse neurons are grown for 12 days in Neurobasal™ medium on 20 mm diameter glass coverslips. Primary cultures of mouse astrocytes are grown for 21 days in astrocytes culture medium in 35 mm diameter dishes. Two hours before initiation of the co-culture, the astrocyte medium is removed and replaced by a fresh neuronal medium. The co-culture is initiated by putting the glass coverslips bearing neurons in the dishes containing astrocyte culture so that neurons face astrocytes. […] For detection this purple product is solubilised for colorimetric quantification at 560 nm using a spectrophotometer.

SMILES	Aqueous solubility (in words) [1]	Nrf2 activation (in words) (Nrf2)	Doses at which viability of AREc32 cells was not affected (AREc32 cells)	Concentration giving the strongest protective effect [2]	Protection of neurons against oxidative stress (in words) ([2]; all tested concentrations (5 μM to 30 μM) except 10 μM)
O=c1c(O)c(-c2ccc(O)c(O)c2)oc2cc(O)cc(O)c12 [quercitin]	very low aqueous solubility	–	–	–	–
COc1cc(/C=C/C(=O)CC(=O)/C=C/c2ccc(O)c(OC)c2)ccc1O [curcumin]	very low aqueous solubility	–	–	–	–
CC(=O)/C=C/C(=O)O [4-oxo-2-pentenoic acid]	–	activates Nrf2; also recorded: strongly activate Nrf2 in a dose dependent manner	lower than 70 μM	5 µM	protects neuronal cells against oxidative stress; also recorded: clear and significant protection
Oc1ccc(C=Cc2cc(O)cc(O)c2)cc1 [resveratrol]	very low aqueous solubility	–	–	–	–
